Structures can show the parent of a compound that is named as a salt.

In test [1] the test system is TNF-α production. In words: Inhibitory activity against cytokine (TNF-α) production in LPS-stimulated RAW264.7 cells. Particulars: 1 μM test compound, LPS 10 ng/mL; for inhibition at 1 µM: Mus musculus. It is filed as cell-based, mouse. The procedure, abridged: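 Mouse RAW264.7 macrophages (5,000 cells/well) stimulated with 10 ng/mL LPS (final) and treated with test compound at 1 μM final for 15 h at 37 °C. Supernatant mouse TNF-α measured by ELISA; % inhibition = 100−(A−B)/(C−B)×100, using unstimulated and LPS-only controls.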

Test [2] has as its system Rat white adipocytes. Kind of test: Inhibition of the differentiation of adipocytes (Oil Red O). The note with it: 100 nM test compound, 5 days, Oil Red O ABS550, control = 100%, blank = 0%, Table 3; for activity at 0.1 µM: Rattus norvegicus, Adipocyte, 120 h, read-out: Rate of Differentiation (%). The class given is cell-based. The procedure, abridged:
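Rat white preadipocytes, 5,000 cells/well, given differentiation medium with compound at 100 nM final (0.1% DMSO) for 5 days at 37 °C. Lipid stained with Oil Red O, eluted in DMSO, read at 550 nm; differentiation % relative to DMSO control (100%) and blank (0%).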

`O=C(Nc1ccc(-c2ccc([N+](=O)[O-])cc2)cc1)c1cc([N+](=O)[O-])ccc1Cl` [Example 9, N-[4-(4-Nitrophenyl)phenyl)-(2-chloro-5-nitrophenyl)carboxamide] yielded an inhibition at 1 µM in test [1] (15 hr) of 34%.

The compound `O=C(Nc1ccc(OC(F)(F)F)cc1)c1cc([N+](=O)[O-])ccc1Cl` [Example 18, N-(4-Trifluoromethyloxyphenyl)-(2-chloro-5-nitrophenyl)carboxamide] had an inhibition at 1 µM in test [1] (RAW264.7, 15 h) of 16.8%. Turning to `N#Cc1cccc(NC(=O)c2cc([N+](=O)[O-])ccc2Cl)c1` [Example 21, N-(3-Cyanophenyl)-(2-chloro-5-nitrophenyl)carboxamide], the activity at 0.1 µM in test [2] was 63%. As to `O=C(Nc1ccc([N+](=O)[O-])cc1)c1cc([N+](=O)[O-])ccc1Cl` [Example 23, N-(4-Nitrophenyl)-(2-chloro-5-nitrophenyl)carboxamide], in test [2], the activity at 0.1 µM was determined as 57.7%. The compound further gave an inhibition at 1 µM in test [1] (15 hr) of 24.4%. In the same order, the values of `O=C(Nc1ccc([N+](=O)[O-])cn1)c1cc([N+](=O)[O-])ccc1Cl` [Example 24, N-(5-Nitropyridin-2-yl)-(2-chloro-5-nitrophenyl)carboxamide] are 59.1% and 30.1%.

Take `O=C(Nc1cccc([N+](=O)[O-])c1)c1cc([N+](=O)[O-])ccc1Cl` [Example 25, N-(3-Nitrophenyl)-(2-chloro-5-nitrophenyl)carboxamide]: in test [2], the activity at 0.1 µM stood at 84%.

As to `O=C(Nc1cccc(C(=O)N2CCCC2)c1)c1cc([N+](=O)[O-])ccc1Cl` [Example 31], the “Rate of Differentiation (%)” value in test [2] came out at 77.2%. As to `Cc1ccc(S(=O)(=O)Nc2ccc(NC(=O)c3cc([N+](=O)[O-])ccc3Cl)cc2)cc1` [Example 32, N-[4-(4-Methylbenzene)sulfonylaminophenyl]-(2-chloro-5-nitrophenyl)carboxamide], the “Inhibitory Activity (%) against TNF-α production” value in test [1] (15 hr) is 19.8%. The compound `O=C(Nc1nc2ccc([N+](=O)[O-])cc2s1)c1cc([N+](=O)[O-])ccc1Cl` [Example 34, N-(6-Nitrobenzothiazol-2-yl)-(2-chloro-5-nitrophenyl)carboxamide] had an inhibition at 1 µM in test [1] (15 hr) of 15.2%. In test [1] (RAW264.7, 15 h), `O=C(Nc1nc(-c2cccs2)cs1)c1cc([N+](=O)[O-])ccc1Cl` [Example 36, N-[4-(2-Thienyl)thiazol-2-yl)-(2-chloro-5-nitrophenyl)carboxamide] had an inhibition at 1 µM of 18%.

As for `O=C(Nc1nc(-c2ccc3ccccc3c2)cs1)c1cc([N+](=O)[O-])ccc1Cl` [Example 42, N-[4-(2-Naphthyl)thiazol-2-yl)-(2-chloro-5-nitrophenyl)carboxamide], the inhibition at 1 µM in test [1] (RAW264.7, 15 h) was found to be 18.8%. For the compound `O=C(Nc1nc(-c2ccc(Cl)c(Cl)c2)cs1)c1cc([N+](=O)[O-])ccc1Cl` [Example 43, N-[4-(3,4-Dichlorophenyl)thiazol-2-yl]-(2-chloro-5-nitrophenyl)carboxamide], in test [1] (RAW264.7, 15 h), the inhibition at 1 µM was 17.7%. As for `O=C(Nc1ccncc1)c1cc([N+](=O)[O-])ccc1Cl` [Example 49, N-(4-Pyridyl)-(2-chloro-5-nitrophenyl)carboxamide], the activity at 0.1 µM in test [2] was determined as 71%. In test [1] (RAW264.7, 15 h), `O=C(Nc1cnc2ccccc2c1)c1cc([N+](=O)[O-])ccc1Cl` [Example 55, N-(3-Quinolinyl)-(2-chloro-5-nitrophenyl)carboxamide] had an inhibition at 1 µM of 15.3%. Consider `O=C(Nc1ccc(Cl)nc1)c1cc([N+](=O)[O-])ccc1Cl` [Example 62, N-(6-Chloropyridin-3-yl)-(2-chloro-5-nitrophenyl)carboxamide], for which, in test [2], the activity at 0.1 µM was determined as 68.5%. This compound also had an inhibition at 1 µM in test [1] (RAW264.7, 15 h) of 20.5%. Turning to `O=C(Nc1ccc(NC(=O)c2cc([N+](=O)[O-])ccc2Cl)nc1)c1cc([N+](=O)[O-])ccc1Cl` [Example 64, 2,5-bis(2-Chloro-5-nitrobenzoylamino)pyridine], the activity at 0.1 µM in test [2] came to 85.5%. Take `O=C(Nc1nc2cc(Cl)ccc2o1)c1cc([N+](=O)[O-])ccc1Cl` [Example 75, N-(5-Chlorobenzoxazol-2-yl)-(2-chloro-5-nitrophenyl)carboxamide]: the activity at 0.1 µM in test [2] is 88.6%. `O=C(Nc1ncc(Br)cn1)c1cc([N+](=O)[O-])ccc1Cl` [Example 77, N-(5-Bromopyrimidin-2-yl)-(2-chloro-5-nitrophenyl)carboxamide]: the activity at 0.1 µM in test [2] was found to be 68%. Take `Nc1ccc(-c2ccc(NC(=O)c3cc([N+](=O)[O-])ccc3Cl)cc2)cc1` [Example 88, N-[4-(4-Aminophenyl)phenyl]-(2-chloro-5-nitrophenyl)carboxamide mono-hydrochloride]: in test [2] (mono-hydrochloride), the “Rate of Differentiation (%)” value was determined as 63.3%. The same compound gave an inhibition at 1 µM in test [1] (RAW264.7, 15 h) of 28%. With `CS(=O)(=O)Nc1ccc(-c2ccc(NC(=O)c3cc([N+](=O)[O-])ccc3Cl)cc2)cc1` [Example 93, N-[4-[4-(Methanesulfonylamino)phenyl]phenyl]-(2-chloro-5-nitrophenyl)carboxamide], the activity at 0.1 µM in test [2] was found to be 62.9%. In test [1] (RAW264.7, 15 h), this compound showed an inhibition at 1 µM of 15.6%.

For `O=C(Nc1ccc(N2CCCCC2)cc1)c1cc([N+](=O)[O-])ccc1Cl` [Example 114, N-[4-(Piperidin-1-yl)phenyl]-(2-chloro-5-nitrophenyl)carboxamide], in test [1] (RAW264.7, 15 h), the inhibition at 1 µM came out at 16.8%.

Turning to `O=C(Nc1ccc(-c2ccc(NC(=O)c3cc([N+](=O)[O-])ccc3Cl)cc2)cc1)c1ccccc1` [Example 120, N-[4-(4-Benzoylaminophenyl)phenyl]-(2-chloro-5-nitrophenyl)carboxamide], the activity at 0.1 µM in test [2] turned out to be 79.8%. For `O=C(Nc1ccc(-c2ccc(NC(=O)c3cc([N+](=O)[O-])ccc3Cl)cc2)cc1)c1cccnc1` [Example 124, N-[4-[4-(Pyridin-3-ylcarbonylamino)phenyl]phenyl]-(2-chloro-5-nitrophenyl)carboxamide], the activity at 0.1 µM in test [2] worked out at 84.2%. The same measure, in the same setting: under `O=C(Nc1ccc(-c2ccc(NC(=O)c3cc([N+](=O)[O-])ccc3Cl)cc2)cc1)c1ccncc1` [Example 126, N-[4-[4-(Pyridin-4-ylcarbonylamino)phenyl]phenyl]-(2-chloro-5-nitrophenyl)carboxamide] stands 75.2%; under `CCS(=O)(=O)Nc1ccc(-c2ccc(NC(=O)c3cc([N+](=O)[O-])ccc3Cl)cc2)cc1` [Example 130, N-[4-(4-Ethanesulfonylaminophenyl)phenyl]-(2-chloro-5-nitrophenyl)carboxamide], 64%. As for `Cc1ccc2nc(NC(=O)c3cc([N+](=O)[O-])ccc3Cl)sc2c1` [Example 141, N-(6-Methybenzothiazol-2-yl)-(2-chloro-5-nitrophenyl)carboxamide], the “Inhibitory Activity (%) against TNF-α production” value in test [1] (15 hr) stood at 15.9%. Consider `Cl.O=C(Nc1ccncc1)c1cc([N+](=O)[O-])ccc1Cl` [Example 146, N-(Pyridin-4-yl)-(2-chloro-5-nitrophenyl)carboxamide Hydrochloride], for which the “Rate of Differentiation (%)” value in test [2] worked out at 78.2%. `CCc1ccc(S(=O)(=O)Nc2ccc(NC(=O)c3cc([N+](=O)[O-])ccc3Cl)cc2)cc1` [Example 150, N-[4-(4-Ethylbenzenesulfonylamino)phenyl]-(2-chloro-5-nitrophenyl)carboxamide] yielded an inhibition at 1 µM in test [1] (RAW264.7, 15 h) of 16.2%. Turning to `CC(=O)c1ccc(NC(=O)c2cc([N+](=O)[O-])ccc2Cl)cc1` [Example 155, N-(4-Acetylphenyl)-(2-chloro-5-nitrophenyl)carboxamide], the activity at 0.1 µM in test [2] amounted to 82.7%. On the same count and under the same terms, under `O=C(Nc1ccc(-n2ccnc2)cc1)c1cc([N+](=O)[O-])ccc1Cl` [Example 174, N-[4-(Imidazol-1-yl)phenyl]-(2-chloro-5-nitrophenyl)carboxamide] stands 68.8%. `CC(C)(C)c1cc(NS(=O)(=O)c2ccc(NC(=O)c3cc([N+](=O)[O-])ccc3Cl)cc2)cc(C(C)(C)C)c1O` [Example 175, N-[4-[(3,5-di-tert-Butyl-4-hydroxyphenyl)aminosulfonyl]phenyl]-(2-chloro-5-nitrophenyl)carboxamide]: the inhibition at 1 µM in test [1] (RAW264.7, 15 h) was 15.7%. As to `O=C(Nc1ccc(-c2ccc(N3CCCCC3)cc2)cc1)c1cc([N+](=O)[O-])ccc1Cl` [Example 177, N-[4-[4-(Piperidin-1-yl)phenyl]phenyl]-(2-chloro-5-nitrophenyl)carboxamide], the activity at 0.1 µM in test [2] worked out at 14%. Compound `CCCN(CCC)c1ccc(NC(=O)c2cc([N+](=O)[O-])ccc2Cl)cc1` [Example 182, N-[4-(N,N-Dipropylamino)phenyl]-(2-chloro-5-nitrophenyl)carboxamide] displayed an inhibition at 1 µM in test [1] (RAW264.7, 15 h) of 32.8%.

Turning to `CCCCCCN(CC)c1ccc(NC(=O)c2cc([N+](=O)[O-])ccc2Cl)cc1` [Example 188, N-[4-(N-Ethyl-N-hexylamino)phenyl]-(2-chloro-55 nitrophenyl)carboxamide], the inhibition at 1 µM in test [1] (RAW264.7, 15 h) is 24.2%.

As for `O=C(Nc1nc(-c2ccc([N+](=O)[O-])cc2)cs1)c1cc([N+](=O)[O-])ccc1Cl` [Example 246, N-[4-(4-Nitrophenyl)thiazol-2-yl]-(2-chloro-5-nitrophenyl)carboxamide], at 1 µM the inhibition in test [1] (15 hr) was 18%.

Turning to “N-[4-(4-Methylbenzoylamino)phenyl]phenyl]-(2-chloro-5-nitrophenyl)carboxamide [Example 122]”, the “Rate of Differentiation (%)” value in test [2] came to 78.4%. In the case of “N-[4-[4-(Pyrrolidin-1-ylamino)phenyl]phenyl]-(2-chloro-5-nitrophenyl)carboxamide [Example 171]”, in test [2], the “Rate of Differentiation (%)” value is listed as 43.0%.
